# Activity calls are given as the source filed them. Numbered stars: 1 amine (or outer) side, 2 acyl side, 3 side chain; on linkers, the order of the positions; unused ones are H or OH. Square brackets hold non-standard residues; d marks the D form. Peptide text beside a SMILES is read from it. ξ: configuration not given here. ξR = N=C(N)NCCCC(N)C(=O)O; ξF = NC(Cc1ccccc1)C(=O)O; CO = O=C([*:1])[*:2]
# What was measured:
# Coagulation factor XII = target: T1, Coagulation factor XII (Homo sapiens, UniProt P00748); assay type: functional;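 note: activated factor XIIa alpha cleaving a fluorogenic AMC peptide substrate; inhibitor potency from loss of enzyme activity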
# T1 sequence (P00748 whole entry): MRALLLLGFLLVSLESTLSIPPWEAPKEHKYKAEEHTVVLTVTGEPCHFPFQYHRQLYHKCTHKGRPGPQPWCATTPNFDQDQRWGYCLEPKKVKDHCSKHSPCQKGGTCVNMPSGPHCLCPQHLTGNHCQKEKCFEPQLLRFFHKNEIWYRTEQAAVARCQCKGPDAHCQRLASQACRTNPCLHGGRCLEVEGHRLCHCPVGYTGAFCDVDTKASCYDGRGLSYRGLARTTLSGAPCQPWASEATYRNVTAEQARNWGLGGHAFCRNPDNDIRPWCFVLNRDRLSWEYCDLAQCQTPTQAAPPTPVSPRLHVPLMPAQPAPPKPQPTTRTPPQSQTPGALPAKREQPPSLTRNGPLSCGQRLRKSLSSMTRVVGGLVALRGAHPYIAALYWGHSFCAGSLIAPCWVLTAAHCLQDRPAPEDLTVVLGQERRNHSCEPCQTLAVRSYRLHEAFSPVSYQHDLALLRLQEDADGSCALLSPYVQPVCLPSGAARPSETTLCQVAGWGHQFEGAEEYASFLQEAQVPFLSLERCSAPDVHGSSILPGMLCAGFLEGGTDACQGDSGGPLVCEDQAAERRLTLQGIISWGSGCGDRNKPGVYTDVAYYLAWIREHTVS
# Beta-galactosidase = Beta-galactosidase (Escherichia coli, UniProt Q8VNN2); assay: PubChem AID 485352; assay type: functional
# Beta-galactosidase, sequence (Q8VNN2 whole entry): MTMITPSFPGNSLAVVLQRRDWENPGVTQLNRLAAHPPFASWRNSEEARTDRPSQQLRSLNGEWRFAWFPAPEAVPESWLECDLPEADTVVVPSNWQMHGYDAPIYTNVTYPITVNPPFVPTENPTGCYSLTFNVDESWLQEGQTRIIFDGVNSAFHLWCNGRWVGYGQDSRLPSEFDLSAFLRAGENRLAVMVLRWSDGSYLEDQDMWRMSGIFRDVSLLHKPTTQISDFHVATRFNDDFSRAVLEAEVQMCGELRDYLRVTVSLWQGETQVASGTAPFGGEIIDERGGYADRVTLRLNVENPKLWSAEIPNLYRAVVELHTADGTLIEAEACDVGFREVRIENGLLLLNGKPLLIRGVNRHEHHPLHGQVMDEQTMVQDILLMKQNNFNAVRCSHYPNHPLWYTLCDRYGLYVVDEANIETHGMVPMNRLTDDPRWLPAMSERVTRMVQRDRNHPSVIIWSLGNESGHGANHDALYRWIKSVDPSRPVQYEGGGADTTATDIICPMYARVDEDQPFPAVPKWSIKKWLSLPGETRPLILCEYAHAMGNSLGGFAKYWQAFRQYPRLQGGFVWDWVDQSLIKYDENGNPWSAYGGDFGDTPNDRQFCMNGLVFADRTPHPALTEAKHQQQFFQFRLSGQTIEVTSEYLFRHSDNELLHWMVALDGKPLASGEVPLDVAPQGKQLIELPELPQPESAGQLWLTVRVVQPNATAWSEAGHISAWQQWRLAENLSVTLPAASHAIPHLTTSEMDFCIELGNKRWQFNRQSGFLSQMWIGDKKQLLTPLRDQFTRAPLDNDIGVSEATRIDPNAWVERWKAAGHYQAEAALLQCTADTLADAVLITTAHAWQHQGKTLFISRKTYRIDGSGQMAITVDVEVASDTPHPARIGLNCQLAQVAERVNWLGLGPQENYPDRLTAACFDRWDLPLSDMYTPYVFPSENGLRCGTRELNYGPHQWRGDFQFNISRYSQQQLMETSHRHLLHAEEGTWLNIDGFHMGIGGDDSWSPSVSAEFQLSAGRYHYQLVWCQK
# [1] = target: T2, Type-1 angiotensin II receptor (Homo sapiens, UniProt P30556); assay: antagonism of angiotensin II type 1 receptor – cell-based, uHTS hits, selectivity assay for APJ receptor antagonist project, dose response (AID 463214); assay type: functional;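 note: antagonist potency against angiotensin II stimulated AT1 response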
# T2 sequence (P30556 whole entry): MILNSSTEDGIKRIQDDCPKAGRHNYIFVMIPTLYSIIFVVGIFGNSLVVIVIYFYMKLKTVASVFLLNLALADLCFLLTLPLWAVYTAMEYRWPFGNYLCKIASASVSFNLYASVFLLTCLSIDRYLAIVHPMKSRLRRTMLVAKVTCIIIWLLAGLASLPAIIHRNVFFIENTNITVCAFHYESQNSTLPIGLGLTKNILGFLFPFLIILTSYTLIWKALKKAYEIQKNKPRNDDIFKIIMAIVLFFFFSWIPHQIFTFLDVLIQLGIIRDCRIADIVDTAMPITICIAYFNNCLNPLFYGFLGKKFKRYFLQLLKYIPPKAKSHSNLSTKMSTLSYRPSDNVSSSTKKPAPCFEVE
# Cytochrome P450 2C9 [2] = target: T3, Cytochrome P450 2C9 (Homo sapiens, UniProt P11712)
# T3 sequence (P11712 whole entry): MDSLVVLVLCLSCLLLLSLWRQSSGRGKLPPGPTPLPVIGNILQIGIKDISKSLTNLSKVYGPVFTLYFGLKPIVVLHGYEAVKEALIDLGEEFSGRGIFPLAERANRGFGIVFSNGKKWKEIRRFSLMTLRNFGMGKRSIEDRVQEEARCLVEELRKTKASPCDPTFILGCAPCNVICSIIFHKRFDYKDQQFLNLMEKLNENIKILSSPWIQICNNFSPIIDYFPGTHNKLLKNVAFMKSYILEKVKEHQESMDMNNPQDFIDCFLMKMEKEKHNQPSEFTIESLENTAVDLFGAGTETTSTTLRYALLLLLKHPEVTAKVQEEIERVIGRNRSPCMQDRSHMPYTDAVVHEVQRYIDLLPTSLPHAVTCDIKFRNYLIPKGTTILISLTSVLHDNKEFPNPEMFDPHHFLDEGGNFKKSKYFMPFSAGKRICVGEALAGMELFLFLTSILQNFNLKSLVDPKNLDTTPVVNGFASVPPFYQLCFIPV
# HEK293 = assay: EBV LMP1 TES2 canonical NF-kB signalling blockers – cell-based, HEK293, luciferase, cherry-pick, dose response (AID 588343); assay type: functional; conditions: Homo sapiens
# [3] = target: T4, Latent membrane protein 1 (Human herpesvirus 4 (strain B95-8), UniProt P03230); assay: LMP1 TES1 pathway selectivity over dsRED control – imaging, HEK293T, dual-color eGFP/dsRED, cherry-picks, selectivity assay for LMP1 NF-kB inhibitor project, dose response (AID 588398); assay type: functional, cell-based
# T4 sequence (P03230 whole entry): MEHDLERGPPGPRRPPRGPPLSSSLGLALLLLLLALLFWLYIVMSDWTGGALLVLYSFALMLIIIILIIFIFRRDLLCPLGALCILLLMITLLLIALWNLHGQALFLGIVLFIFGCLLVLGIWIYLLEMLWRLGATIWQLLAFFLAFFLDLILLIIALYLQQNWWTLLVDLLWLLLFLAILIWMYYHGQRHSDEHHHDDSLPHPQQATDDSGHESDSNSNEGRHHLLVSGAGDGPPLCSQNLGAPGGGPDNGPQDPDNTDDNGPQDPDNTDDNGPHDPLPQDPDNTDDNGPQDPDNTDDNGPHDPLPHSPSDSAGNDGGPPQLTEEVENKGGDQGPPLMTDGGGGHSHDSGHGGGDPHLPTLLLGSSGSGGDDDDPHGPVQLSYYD
# [4] = alpha-synuclein stem-loop luciferase translation blockers – H4 neuroglioma cells, luminescence, confirmation (AID 1988); assay type: functional, cell-based
# [5] = Luminescence Cell-Based Dose Response HTS to Identify Inhibitors of 5'UTR Stem-Loop Driven Prion Protein mRNA Translation in H4 Neuroglioblastoma Cells. [Related pubchem assays: 1827 (Project Summary), 1813 (Primary HTS)]; assay type: functional
# [6] = luciferase reporter signal suppression in cells – H4 neuroglioma cells, luminescence, dose response (AID 1990); assay type: functional, cell-based
# Vero = assay: cells; assay type: functional, cell-based; conditions: Chlorocebus sabaeus
# Escherichia coli = assay: microbe, parasite or virus in culture
# Cytochrome P450 2C19 = Cytochrome P450 2C19 (Homo sapiens, UniProt P33261); assay: Cytochrome panel assay with activity outcomes. Panel member name: p450-cyp2c19 Compounds with AC50 equal or less than 10 uM are considered active; assay type: functional; conditions: read-out: AC50
# Cytochrome P450 2C19, sequence (P33261 whole entry): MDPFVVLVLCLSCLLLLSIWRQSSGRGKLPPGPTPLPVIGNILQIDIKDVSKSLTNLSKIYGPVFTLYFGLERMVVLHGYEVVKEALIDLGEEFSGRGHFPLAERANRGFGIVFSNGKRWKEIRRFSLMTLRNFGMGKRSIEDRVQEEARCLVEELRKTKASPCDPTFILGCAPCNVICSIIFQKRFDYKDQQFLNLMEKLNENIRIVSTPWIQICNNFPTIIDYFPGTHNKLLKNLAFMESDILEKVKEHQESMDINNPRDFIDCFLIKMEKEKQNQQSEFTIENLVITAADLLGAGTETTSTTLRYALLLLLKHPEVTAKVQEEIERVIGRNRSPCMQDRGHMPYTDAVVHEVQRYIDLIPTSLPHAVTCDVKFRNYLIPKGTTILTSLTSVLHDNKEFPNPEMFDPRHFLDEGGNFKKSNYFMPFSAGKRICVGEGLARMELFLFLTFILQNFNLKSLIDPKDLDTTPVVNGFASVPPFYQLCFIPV
# Cytochrome P450 2C9 [7] = target: T3, Cytochrome P450 2C9; remark: listed apart in the source
# Cytochrome P450 1A2 = target: T5, Cytochrome P450 1A2 (Homo sapiens, UniProt P05177);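 note: PubChem cytochrome P450 panel assay, CYP1A2 panel member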
# T5 sequence (P05177 whole entry): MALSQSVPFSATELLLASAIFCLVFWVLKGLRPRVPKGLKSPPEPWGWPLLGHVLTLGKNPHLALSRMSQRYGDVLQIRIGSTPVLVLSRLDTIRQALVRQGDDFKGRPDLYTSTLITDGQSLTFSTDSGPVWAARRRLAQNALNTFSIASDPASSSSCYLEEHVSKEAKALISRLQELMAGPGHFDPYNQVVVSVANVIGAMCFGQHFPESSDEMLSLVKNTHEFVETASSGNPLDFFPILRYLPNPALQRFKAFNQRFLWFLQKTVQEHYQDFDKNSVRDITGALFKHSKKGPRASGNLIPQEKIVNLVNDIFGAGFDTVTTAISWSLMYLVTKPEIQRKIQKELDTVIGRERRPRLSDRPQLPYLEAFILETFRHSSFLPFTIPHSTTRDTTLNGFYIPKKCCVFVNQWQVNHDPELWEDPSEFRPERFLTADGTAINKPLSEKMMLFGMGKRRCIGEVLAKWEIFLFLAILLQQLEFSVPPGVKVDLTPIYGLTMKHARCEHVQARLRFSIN
# [8] = target: T6, Short transient receptor potential channel 4 (Mus musculus, UniProt Q9QUQ5); assay: calcium entry via TRPC4 opening agents – cell-based, HEK293 TRPC4/mu-opioid, Fluo-4 calcium, dose response (AID 434937); assay type: functional
# T6 sequence (Q9QUQ5 whole entry): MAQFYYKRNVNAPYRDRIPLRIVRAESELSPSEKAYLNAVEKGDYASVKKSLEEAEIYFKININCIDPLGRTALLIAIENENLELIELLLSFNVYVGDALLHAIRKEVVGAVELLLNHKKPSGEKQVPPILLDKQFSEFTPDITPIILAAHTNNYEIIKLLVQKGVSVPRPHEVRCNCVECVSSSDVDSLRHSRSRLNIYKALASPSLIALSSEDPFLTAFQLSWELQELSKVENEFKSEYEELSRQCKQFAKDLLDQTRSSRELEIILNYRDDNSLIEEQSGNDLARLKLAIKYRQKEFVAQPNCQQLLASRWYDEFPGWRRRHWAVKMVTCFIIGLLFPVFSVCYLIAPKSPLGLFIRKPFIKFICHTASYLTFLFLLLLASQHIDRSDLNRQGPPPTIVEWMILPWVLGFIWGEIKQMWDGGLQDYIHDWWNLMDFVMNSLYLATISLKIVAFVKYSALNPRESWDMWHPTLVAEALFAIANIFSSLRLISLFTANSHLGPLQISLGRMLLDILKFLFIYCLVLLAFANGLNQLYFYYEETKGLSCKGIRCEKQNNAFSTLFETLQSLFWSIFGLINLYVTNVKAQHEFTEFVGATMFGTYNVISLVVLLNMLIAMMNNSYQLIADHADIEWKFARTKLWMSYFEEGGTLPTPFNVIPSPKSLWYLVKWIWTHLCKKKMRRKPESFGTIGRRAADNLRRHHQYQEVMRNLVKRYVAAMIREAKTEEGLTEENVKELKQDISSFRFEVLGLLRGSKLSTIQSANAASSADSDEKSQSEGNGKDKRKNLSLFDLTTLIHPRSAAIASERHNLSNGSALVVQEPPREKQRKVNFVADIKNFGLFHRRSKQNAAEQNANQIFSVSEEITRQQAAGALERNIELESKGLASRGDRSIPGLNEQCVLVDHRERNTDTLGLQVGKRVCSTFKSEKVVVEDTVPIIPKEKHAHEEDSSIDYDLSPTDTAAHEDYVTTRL
# [9] = target: T6, Short transient receptor potential channel 4; assay: block of DAMGO-driven TRPC4 calcium entry – cell-based, HEK293 TRPC4/mu-opioid, Fluo-4 calcium, dose response (AID 434942); assay type: functional;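 note: potency of inhibitors blocking the TRPC4 calcium response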
# [10] = Luminescence Cell-Based Dose Retest to Confirm Inhibitors of Cancer Stem Cells. [Related pubchem assays (depositor defined):AID2717, AID2721]; assay type: functional; conditions: Homo sapiens
smiles,measurement,setting,value
Oc1c2nc3cccc(Cl)c3c-2ncn1CCN1CCCCC1,IC50,Coagulation factor XII,> 50 µM (inactive)
Cn1c(-c2ccccc2)cnc1SCC(N)=O,IC50,Coagulation factor XII,> 50 µM (inactive)
O=C(CN1C(=O)C2C3CC(C(Br)C3Br)C2C1=O)OCC(=O)c1cccc([N+](=O)[O-])c1 (configuration not stated),EC50,Beta-galactosidase,> 40 µM (inactive)
same,IC50,[1],20.4 µM (not active)
O=C1/C(=C/c2cccnc2)SC(=S)N1Cc1ccco1,AC50,Cytochrome P450 2C9 [2],6.31 µM (inconclusive)
same,AC50,HEK293,0.758 µM (active)
same,AC50,[3],39.5 µM (active)
CC(C)(C)OC(=O)[C@H](Cc1ccccc1)NC(=O)c1[nH]cnc1C(=O)N1CCN(C(=O)OC(C)(C)C)CC1,EC50,[4],26.6 µM (active)
same,EC50,[5],20 µM (active)
same,EC50,[6],61.6 µM (active)
same,IC50,Vero,18.3 µM (active)
COc1ccccc1NC(=O)CSc1nnnn1C,IC50,Coagulation factor XII,> 50 µM (inactive)
Cc1ccc(NC(S)=NCCC2=CCCCC2)cc1,AC50,Escherichia coli,115 µM (active)
CC(=O)NC(Cc1c[nH]cn1)C(=O)O (configuration not stated),AC50,Escherichia coli,29.2 µM (active)
Cc1ccc(C(=O)NC2CCCCC2)cc1,AC50,Cytochrome P450 2C19,25.1 µM (inconclusive)
same,AC50,Cytochrome P450 2C9 [7],inconclusive
same,AC50,Cytochrome P450 1A2,22.4 µM (inconclusive)
Cc1noc(C)c1C(=O)NNc1ccc(C(C)C)cc1,EC50,Beta-galactosidase,> 40 µM (inactive)
same,IC50,[1],3.68 µM (active)
Cc1ccc2c(c1)nnn2C1CCN(CC(=O)N2c3ccccc3CC2C)CC1 (configuration not stated),EC50,[4],81.6 µM (active)
same,EC50,[5],> 120 µM (not active)
same,EC50,[6],> 120 µM (not active)
same,AC50,Cytochrome P450 2C9 [7],inconclusive
same,AC50,Cytochrome P450 1A2,6.31 µM (inconclusive)
CCC(=O)NC(C)C(c1cccs1)N1CCN(c2ccccc2)CC1 (configuration not stated),EC50,[8],0.421 µM (active)
Cn1c(N)c(C(=O)COC(=O)CCCN2C(=O)c3ccccc3C2=O)c(=O)n(C)c1=O,AC50,Escherichia coli,31.9 µM (active)
COc1ccc(C)c(NC(=O)NCCc2c[nH]cn2)c1,EC50,[8],1.88 µM (active)
Cn1c(C(N)=O)cnc1Sc1ncc(C(F)(F)F)cc1Cl,AC50,Cytochrome P450 2C9 [7],inconclusive
same,AC50,Cytochrome P450 1A2,28.2 µM (inconclusive)
COc1cc(OC)cc(C(=O)N[C@H](C(=O)OCC(=O)c2ccc(C)c([N+](=O)[O-])c2)C(C)C)c1,AC50,[3],42.8 µM (active)
same,EC50,Beta-galactosidase,> 40 µM (inactive)
same,IC50,[1],> 40 µM (not active)
NC(=O)c1nn(-c2ccccc2)c(=O)cc1O,AC50,Cytochrome P450 2C9 [7],inconclusive
COc1cc2c(=O)n(CC3CCCO3)c(=O)n(CC(=O)Nc3cccc(Cl)c3)c2cc1OC (configuration not stated),AC50,HEK293,84.3 µM (active)
same,AC50,[3],277 µM (active)
CC(C)(C)C(=O)N1N=C(Nc2ccccc2)SC1(C)C,IC50,Coagulation factor XII,> 50 µM (inactive)
OC1(c2cccs2)C[N+](c2ccc(Cl)cc2)=C2CCCCN21 (configuration not stated),EC50,[9],2.66 µM (active)
same,IC50,Vero,8.4 µM (active)
O=C(NC1CCCc2ccccc21)c1ccc(O)nc1 (configuration not stated),AC50,Cytochrome P450 2C9 [7],inconclusive
O=C(N/N=C/c1cccnc1)c1ccccc1OCc1ccc(Cl)cc1,EC50,[9],1.5 µM (active)
same,EC50,[8],3.35 µM (active)
CN1CCN(/N=C/c2ccc(N(c3ccccc3)c3ccccc3)cc2)CC1,AC50,HEK293,0.907 µM (active)
same,AC50,[10],5.11 µM (active)
same,AC50,[3],0.147 µM (active)
O=C(c1ccco1)C(O)c1ccco1 (configuration not stated),EC50,Beta-galactosidase,> 40 µM (inactive)
same,IC50,[1],35.2 µM (not active)
CC(C)[C@H](NC(=O)[C@H](CCCN=C(N)N)NC(=O)NC(Cc1ccccc1)C(=O)O)C(=O)NC(C=O)CCCN=C(N)N (stereo partly drawn) ({ξF-CO}-Arg-Val-[ξR]-aldehyde),IC50,Coagulation factor XII,5.87 µM (active)

# From ChEMBL document CHEMBL1201862, “PubChem BioAssay data set” (2004)
